This note sets out measurements from patent US20150147436A1, “PRODUCTION OF CHEESE WITH S. THERMOPHILUS” (DuPont Nutrition BioSciences ApS, priority 2011, published 2015).

For one test, the system named is urease enzyme. The test is described as follows: Floating curd experiment in test tubes (Example 3). The conditions noted are these: Lactococci + ur(+) S. thermophilus + urease inhibitor, fermented at 35° C. to pH 4.65, heated at about 66° C. (test tube 3). On the procedure: Four experiments were conducted in which milk was treated with various bacteria. In experiment 1, only Lactococci bacteria were added. In experiment 2, a blend of Lactococci bacteria and ur(+) S. thermophilus bacteria were added. In experiment 3, a blend of Lactococci bacteria, ur(+) S. thermophilus bacteria, and the urease inhibitor flurofamide were added. In experiment 4, only ur(+) S. thermophilus bacteria were added.
In each experiment, the milk was fermented with the bacteria at 35° C. until the cheese reached a pH of 4.65. A sample of the cheese was placed into a test tube, which was heated at about 66° C. for about 10 minutes. After 10 minutes of heating, a small pipette or thin wire was used to agitate the sample. The samples were held at about 66° C. for another ten minutes, at which time the photograph of the test tubes depicted in FIG. 3, was taken.
Test tube 4 is a positive control that contains ur(+) S. thermophilus, which has urease enzymes that can hydrolyze urea in milk.

A further test relates to ur(−) S. thermophilus. Kind of test: Acidification of milk by S. thermophilus with or without sodium formate (Example 2). The format is cell-based. The settings on record: 10 ppm sodium formate, 2% milk, 40° C., no Lactococci, 350 minutes. On the procedure:
Samples of 2% milk taken from the same source were treated with ur(+) S. thermophilus without formate, ur(−) S. thermophilus without formate, and ur(−) S. thermophilus with 10 ppm sodium formate. Lactoccocci bacteria were not used. The milk was maintained at 40° C., and pH measurements were taken for 350 minutes.
FIG. 2 is a graph showing exemplary results from this experiment.

Regarding `NP(N)(=O)NC(=O)c1ccc(F)cc1` [flurofamide], the floating curd result in the test on urease enzyme is “no floating curd”. As for `O=C[O-].[Na+]` [sodium formate], in the test on ur(−) S. thermophilus, the “pH decrease effected by the ur(−) S. thermophilus” value is listed as “significantly accelerated”.
